This passage reports Ki results from US7279491B2 (Janssen Pharmaceutica N.V., priority 2002, dated 2007).

In the assay the target is T1, human histamine H3 receptor (Homo sapiens, UniProt Q9Y5N1).
T1 construct: One microgram of supercoiled H3 receptor cDNA was added to the cells and mixed; expressed in transfected cells; membranes
T1 sequence (Q9Y5N1 whole entry): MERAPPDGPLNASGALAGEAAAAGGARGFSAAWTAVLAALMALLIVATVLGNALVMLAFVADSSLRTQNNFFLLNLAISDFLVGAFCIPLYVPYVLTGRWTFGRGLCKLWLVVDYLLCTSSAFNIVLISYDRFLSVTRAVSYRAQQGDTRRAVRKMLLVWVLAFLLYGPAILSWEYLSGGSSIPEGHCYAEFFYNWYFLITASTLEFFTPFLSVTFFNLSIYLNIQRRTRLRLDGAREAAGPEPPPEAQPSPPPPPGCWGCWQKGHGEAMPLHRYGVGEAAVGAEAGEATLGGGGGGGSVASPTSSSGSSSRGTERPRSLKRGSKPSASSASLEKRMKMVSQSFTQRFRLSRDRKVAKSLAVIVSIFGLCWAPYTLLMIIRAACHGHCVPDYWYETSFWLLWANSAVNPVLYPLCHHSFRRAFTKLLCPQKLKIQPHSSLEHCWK
In words: {3H}-N-methylhistamine binding to membranes of histamine H3 receptor-expressing SK-N-MC cells. Conditions: 0.8 nM {3H}-N-methylhistamine, 45 min at 25° C., Ki=(IC50)/(1+({L}/(Kd)), Kd 800 pM). The method, then: Transfection of Cells with Human Histamine Receptor
A 10 cm tissue culture dish with a confluent monolayer of SK-N-MC cells was split two days prior to transfection. Using sterile technique the media was removed and the cells were detached from the dish by the addition of trypsin. One fifth of the cells were then placed onto a new 10 cm dish. Cells were grown in a 37° C. incubator with 5% CO2 in Minimal Essential Media Eagle with 10% Fetal Bovine Serum. After two days cells were approximately 80% confluent. These were removed from the dish with trypsin and pelleted in a clinical centrifuge. The pellet was then re-suspended in 400 μL complete media and transferred to an electroporation cuvette with a 0.4 cm gap between the electrodes. One microgram of supercoiled H3 receptor cDNA was added to the cells and mixed. The voltage for the electroporation was set at 0.25 kV, the capacitance was set at 960 μF. After electroporation the cells were diluted into 10 mL complete media and plated onto four 10 cm dishes. Because of the variability in the efficiency of electroporation, four different concentrations of cells were plated. The ratios used were; 1:20, 1:10, 1:5, with the remainder of the cells being added to the fourth dish. The cells were allowed to recover for 24 h before adding the selection media (complete media with 600 μg/mL G418). After 10 days dishes were analyzed for surviving colonies of cells. Dishes with well-isolated colonies were used. Cells from individual colonies were isolated and tested. SK-N-MC cells were used because they give efficient coupling for inhibition of adenylate cyclase. The clones that gave the most robust inhibition of adenylate cyclase in response to histamine were used for further study.
{^3H}-N-methylhistamine Binding
Cell pellets from histamine H3 receptor-expressing SK-N-MC cells were homogenized in 20 mM Tris HCl/0.5 mM EDTA. Supernatants from an 800 g spin were collected, recentrifuged at 30,000 g for 30 min. Pellets were re-homogenized in 50 mM Tris/5 mM EDTA (pH 7.4). Membranes were incubated with 0.8 nM {^3H}-N-methylhistamine plus/minus test compounds for 45 min at 25° C. and harvested by rapid filtration over GF/C glass fiber filters (pretreated with 0.3% polyethylenimine) followed by four washes with ice-cold buffer. Filters were dried, added to 4 mL scintillation cocktail and then counted on a liquid scintillation counter. Non-specific binding was defined with 10 μM histamine. The pKi values were calculated based on a Kd of 800 pM and a ligand concentration ({L}) of 800 pM according to the formula: Ki=(IC50)/(1+({L}/(Kd))
In turn, `c1cc(N2CCC(CCN3CCOCC3)C2)ccc1CN1CCCCC1` (stereo not drawn) [Example 60, 4-{2-{1-(4-Piperidin-1-ylmethyl-phenyl)-pyrrolidin-3-yl}-ethyl}-morpholine] had a Ki of 1.1 nM.

`CCN(CC)CCC1CCN(c2ccc(CN3CCCCC3)cc2)C1` (stereo not drawn) [Example 61, Diethyl-{2-{1-(4-piperidin-1-ylmethyl-phenyl)-pyrrolidin-3-yl}-ethyl}-amine]: the affinity corresponds to a Ki of 0.8 nM.

In the case of `CN(CCc1ccccc1)CCC1CCN(c2ccc(CN3CCCCC3)cc2)C1` (stereo not drawn) [Example 62, Methyl-phenethyl-{2-{1-(4-piperidin-1-ylmethyl-phenyl)-pyrrolidin-3-yl}-ethyl}-amine], the affinity corresponds to a Ki of 1.3 nM.

As to `FC(F)(F)c1cc(CN2CCCCC2)ccc1N1CCC(CN2CCCC2)CC1` [Example 68, 1-[4-(4-Pyrrolidin-1-ylmethyl-piperidin-1-yl)-3-trifluoromethyl-benzyl]-piperidine], affinity was put at a Ki of 14 nM.

`O=[N+]([O-])c1cc(CN2CCCCC2)ccc1N1CCC(CN2CCCC2)CC1` [Example 69] registered a Ki of 2 nM.

Turning to `O=[N+]([O-])c1cc(CN2CCOCC2)ccc1N1CCC(CN2CCCC2)CC1` [Example 70, 4-[3-Nitro-4-(4-pyrrolidin-1-ylmethyl-piperidin-1-yl)-benzyl]-morpholine], the Ki is 36 nM.

`O=[N+]([O-])c1cc(CN2CCC(O)CC2)ccc1N1CCC(CN2CCCC2)CC1` [Example 71, 1-[3-Nitro-4-(4-pyrrolidin-1-ylmethyl-piperidin-1-yl)-benzyl]-piperidin-4-ol] displayed a Ki of 5 nM.

`FC(F)(F)c1cc(N2CCC(CN3CCCC3)CC2)ccc1CN1CCCCC1` [Example 72, 1-[4-(4-Pyrrolidin-1-ylmethyl-piperidin-1-yl)-2-trifluoromethyl-benzyl]-piperidine]: the affinity corresponds to a Ki of 8 nM.

Consider `Cc1cc(CN2CCN(C(C)C)CC2)ccc1N1CCC(CN2CCCC2)CC1` [Example 73, 1-Isopropyl-4-[3-methyl-4-(4-pyrrolidin-1-ylmethyl-piperidin-1-yl)-benzyl]-piperazine], for which the inhibition constant (Ki) turned out to be 16 nM. Compared with the last molecule, the Ki is about 2-fold higher.

`Cc1cc(CN2CCCC2)ccc1N1CCC(CN2CCCC2)CC1` [Example 74] registered a Ki of 1 nM.

The molecule `Cc1cc(CN2CCCCC2)ccc1N1CCC(CN2CCCC2)CC1` [Example 75] came in with a Ki of 6 nM.

`FC(F)(F)c1cc(CN2CCC(N3CCCC3)CC2)ccc1N1CCC(CN2CCCC2)CC1` [Example 76, 1-{1-[4-(4-Pyrrolidin-1-yl-piperidin-1-ylmethyl)-2-trifluoromethyl-phenyl]-piperidin-4-ylmethyl}-pyrrolidine]: the affinity, expressed as Ki, was 9 nM. Against the preceding molecule, the Ki is about 1.5-fold higher.

Take `FC(F)(F)c1ccc(C2CCN(Cc3ccc(N4CCC(CN5CCCC5)CC4)cc3C(F)(F)F)CC2)cc1` [Example 77, 1-(1-{3-Trifluoromethyl-4-[4-(4-trifluoromethyl-phenyl)-piperidin-1-ylmethyl]-phenyl}-piperidin-4-ylmethyl)-pyrrolidine]: affinity was put at a Ki of 160 nM.

Molecule `Fc1cc(CN2CCC(c3ccccc3)CC2)ccc1N1CCC(CN2CCCC2)CC1` [Example 78, 1-{1-[2-Fluoro-4-(4-phenyl-piperidin-1-ylmethyl)-phenyl]-piperidin-4-ylmethyl}-pyrrolidine] registered a Ki of 7 nM. Compared with the last molecule, the Ki is about 23-fold lower.

Molecule `CN(C)Cc1ccc(N2CCC(CN3CCCC3)CC2)c(F)c1` [Example 79, [3-Fluoro-4-(4-pyrrolidin-1-ylmethyl-piperidin-1-yl)-benzyl]-dimethyl-amine] displayed a Ki of 4 nM.

On to `Fc1cc(CN2CCCCC2)ccc1N1CCC(CN2CCCC2)CC1` [Example 80, 1-[3-Fluoro-4-(4-pyrrolidin-1-ylmethyl-piperidin-1-yl)-benzyl]-piperidine], for which the inhibition constant Ki came to 4 nM.

With `FC(F)(F)c1cc(N2CCC(CN3CCCC3)CC2)ccc1CN1CCOCCOCCOCCOCC1` [Example 81, 13-[4-(4-pyrrolidin-1-ylmethyl-piperidin-1-yl)-2-trifluoromethyl-benzyl]-1,4,7,10-tetraoxa-13-aza-cyclopentadecane Ditrifluoromethanesulfonate], the affinity, expressed as Ki, was 34 nM.

Consider `OCC1CCN(Cc2ccc(N3CCC(CN4CCCC4)CC3)c(C(F)(F)F)c2)CC1` [Example 82, {1-[4-(4-Pyrrolidin-1-ylmethyl-piperidin-1-yl)-3-trifluoromethyl-benzyl]-piperidin-4-yl}-methanol], for which the affinity corresponds to a Ki of 170 nM.
